Results on 69 molecules are retold here after publication doi:10.1101/2021.10.07.463234v2 (biorxiv, 2021).

Structures can show the parent of a compound that is named as a salt.

In the assay the target is SARS-CoV-2 Mac1 (Severe acute respiratory syndrome coronavirus 2, UniProt P0DTD1). Put plainly: biochemical. As to conditions: for inhibition at 100 µM: read-out: %inhibition; for %inhibition: 100 µM, inhibitor.

The term inhibition denotes how much of the control response was suppressed. As to `CN(C)[C@@H]1C(=O)C(C(N)=O)=C(O)[C@@]2(O)C(=O)C3=C(O)c4c(O)cccc4[C@@](C)(O)[C@H]3C[C@@H]12` [Tetracycline HCl], the inhibition at 100 µM was 22.7%. Take `c1ccc2c(c1)CCCC2C1=NCCN1` (stereo not drawn) [Tetrahydrozoline HCl]: the inhibition at 100 µM worked out at 0%. The same measure, in the same setting: in the case of `c1ccc(C2CN3CCSC3=N2)cc1` (stereo not drawn) [Tetramisole HCl] it was 0%; in that of `CC(C)(CO)c1cc2cc(NC(=O)C3(c4ccc5c(c4)OC(F)(F)O5)CC3)c(F)cc2n1C[C@@H](O)CO` [Tezacaftor(VX-661)], 16.1%. For `O=C1CCC(N2C(=O)c3ccccc3C2=O)C(=O)N1` (stereo not drawn) [Thalidomide], the inhibition at 100 µM came out at 14%. Same read-out and setting: in the case of `c1ccc2[nH]c(-c3cscn3)nc2c1` [Thiabendazole] it was 21.5%; in that of `Cc1ncc(C[n+]2csc(CCO)c2C)c(N)n1` [Thiamine HCl (Vitamin B1)], 0%; in that of `CS(=O)(=O)c1ccc([C@@H](O)[C@@H](CO)NC(=O)C(Cl)Cl)cc1` [Thiamphenicol], 13.4%.

Consider `Nc1nc2[nH]cnc2c(=S)[nH]1` [Thioguanine], for which the inhibition at 100 µM amounted to 18.9%.

On to `S=P(N1CC1)(N1CC1)N1CC1` [Thiotepa], for which the inhibition at 100 µM turned out to be 21.5%. As to `Cc1ccc(C(C)C)c(O)c1` [Thymol], the inhibition at 100 µM amounted to 0.387%. The same measure, in the same setting: in the case of `Cc1ccsc1C(=CCCN1CCC[C@@H](C(=O)O)C1)c1sccc1C` [Tiagabine] it was 9.64%. The %inhibition is the percentage by which the read-out fell short of the control. Read a high %inhibition as a response far below the control. Take `CN1c2ccccc2C(NCCCCCCC(=O)O)c2ccc(Cl)cc2S1(=O)=O` (stereo not drawn) [Tianeptine sodium]: the “%inhibition” value is reported as 0%. On the same count and under the same terms, in the case of `CN1c2ccccc2C(NCCCCCCC(=O)O)c2ccc(Cl)cc2S1(=O)=O` (stereo not drawn) [Tianeptine] it was 12.39%. Regarding `CC(C(=O)O)c1ccc(C(=O)c2ccccc2)s1` (stereo not drawn) [Tiaprofenic acid], the inhibition at 100 µM turned out to be 26.3%. Same read-out and setting: to `CCCSc1nc(N[C@@H]2C[C@H]2c2ccc(F)c(F)c2)c2nnn([C@@H]3C[C@H](OCCO)[C@@H](O)[C@H]3O)c2n1` [Ticagrelor] belongs 6.12%; to `CC1(C)S[C@@H]2[C@H](NC(=O)[C@H](C(=O)O)c3ccsc3)C(=O)N2[C@H]1C(=O)O` [Ticarcillin sodium], 7.19%. Take `Clc1ccccc1CN1CCc2sccc2C1` [Ticlopidine HCl]: the inhibition at 100 µM turned out to be 0.00536%. For `O=c1sn(-c2cccc3ccccc23)c(=O)n1Cc1ccccc1` [Tideglusib], the “%inhibition” value came out at 42.74%. Consider `CN(C)c1cc(NC(=O)CNC(C)(C)C)c(O)c2c1C[C@H]1C[C@H]3[C@H](N(C)C)C(O)=C(C(N)=O)C(=O)[C@@]3(O)C(O)=C1C2=O` [Tigecycline], for which the inhibition at 100 µM worked out at 0%. Still for that read-out and setting: to `CCNC1(c2cccs2)CCCCC1=O` (stereo not drawn) [Tiletamine Hydrochloride] belongs 0%. For `CC[C@H]1OC(=O)C[C@@H](O)[C@H](C)[C@@H](O[C@@H]2O[C@H](C)[C@@H](O)[C@H](N(C)C)[C@H]2O)[C@@H](CCN2C[C@H](C)C[C@H](C)C2)C[C@@H](C)C(=O)/C=C/C(C)=C/[C@@H]1CO[C@@H]1O[C@H](C)[C@@H](O)[C@@H](OC)[C@H]1OC` [Tilmicosin phosphate], the “%inhibition” value came to 0%.

Take `CC[C@H]1OC(=O)C[C@@H](O)[C@H](C)[C@@H](O[C@@H]2O[C@H](C)[C@@H](O)[C@H](N(C)C)[C@H]2O)[C@@H](CCN2C[C@H](C)C[C@H](C)C2)C[C@@H](C)C(=O)/C=C/C(C)=C/[C@@H]1CO[C@@H]1O[C@H](C)[C@@H](O)[C@@H](OC)[C@H]1OC` [Tilmicosin]: the “%inhibition” value came to 23.11%. As for `CC(C)(C)NC[C@H](O)COc1nsnc1N1CCOCC1` [Timolol Maleate], the inhibition at 100 µM is 11.9%.

Regarding `CCS(=O)(=O)CCn1c([N+](=O)[O-])cnc1C` [Tinidazole], the inhibition at 100 µM came out at 0%. Turning to `Clc1ccc(C(Cn2ccnc2)OCc2ccsc2Cl)c(Cl)c1` (stereo not drawn) [Tioconazole], the inhibition at 100 µM is 7.13%. In the case of `CC(S)C(=O)NCC(=O)O` (stereo not drawn) [Tiopronin], the inhibition at 100 µM stood at 0%. Still for that read-out and setting: in the case of `C[N+]1(C)[C@@H]2C[C@@H](OC(=O)C(O)(c3cccs3)c3cccs3)C[C@H]1[C@@H]1O[C@@H]12` [Tiotropium Bromide hydrate] it was 19.5%; in that of `O=c1oc2cc(O)ccc2s1` [Tioxolone], 23.8%; in that of `N=C1CCCN1Cc1[nH]c(=O)[nH]c(=O)c1Cl` [Tipiracil hydrochloride], 0%. Same read-out and setting: to `CCCCS(=O)(=O)N[C@@H](Cc1ccc(OCCCCC2CCNCC2)cc1)C(=O)O` [Tirofiban Hydrochloride] belongs 9.42%; to `O=C1NC(=O)[C@@H](c2cn3c4c(cccc24)CCC3)[C@@H]1c1c[nH]c2ccccc12` [Tivantinib (ARQ 197)], 1.02%; to `COc1cc2nccc(Oc3ccc(NC(=O)Nc4cc(C)on4)c(Cl)c3)c2cc1OC` [Tivozanib (AV-951)], 9.18%. Still for that read-out and setting: to `Clc1ccc2nsnc2c1NC1=NCCN1` [Tizanidine HCl] belongs 0%.

For the molecule `NC[C@H]1O[C@H](O[C@H]2[C@H](O)[C@@H](O[C@H]3O[C@H](CO)[C@@H](O)[C@H](N)[C@H]3O)[C@H](N)C[C@@H]2N)[C@H](N)C[C@@H]1O` [Tobramycin sulfate], the “%inhibition” value is recorded as 7.872%. On the same count and under the same terms, to `NC[C@H]1O[C@H](O[C@H]2[C@H](O)[C@@H](O[C@H]3O[C@H](CO)[C@@H](O)[C@H](N)[C@H]3O)[C@H](N)C[C@@H]2N)[C@H](N)C[C@@H]1O` [Tobramycin] belongs 0%. As for `CCc1ccc(Cc2ccc3c(c2)[C@]2(OC3)O[C@H](CO)[C@@H](O)[C@H](O)[C@H]2O)cc1` [Tofogliflozin(CSG 452)], the inhibition at 100 µM is 1.23%. Take `c1ccc(CC2=NCCN2)cc1` [Tolazoline HCl]: the inhibition at 100 µM worked out at 7.01%.

Turning to `CCCCNC(=O)NS(=O)(=O)c1ccc(C)cc1` [Tolbutamide], the inhibition at 100 µM amounted to 0%. On the same count and under the same terms, to `Cc1ccc(C(=O)c2cc(O)c(O)c([N+](=O)[O-])c2)cc1` [Tolcapone] belongs 0%; to `Cc1c(Cl)cccc1Nc1ccccc1C(=O)O` [Tolfenamic Acid], 16.4%. Regarding `Cc1ccc(C(=O)c2ccc(CC(=O)O)n2C)cc1` [Tolmetin Sodium], the “%inhibition” value was determined as 0.1982%. On the same count and under the same terms, to `Cc1ccc(C(=O)c2ccc(CC(=O)O)n2C)cc1` [Tolmetin] belongs 4.72%. As for `Cc1cccc(N(C)C(=S)Oc2ccc3ccccc3c2)c1` [Tolnaftate], the inhibition at 100 µM stood at 0%. Take `Cc1ccc(C(=O)C(C)CN2CCCCC2)cc1` (stereo not drawn) [Tolperisone HCl]: the inhibition at 100 µM was determined as 8.81%. Take `Cc1ccc(O)c([C@H](CCN(C(C)C)C(C)C)c2ccccc2)c1` [Tolterodine tartrate]: the inhibition at 100 µM turned out to be 34.1%. Same read-out and setting: in the case of `Cc1cc(-n2c(=O)[nH]c(=O)n(C)c2=O)ccc1Oc1ccc(SC(F)(F)F)cc1` [Toltrazuril] it was 0%; in that of `Cc1ccccc1C(=O)Nc1ccc(C(=O)N2CCCC(O)c3cc(Cl)ccc32)c(C)c1` (stereo not drawn) [Tolvaptan], 10.6%. On the same count and under the same terms, in the case of `CC1(C)O[C@@H]2[C@@H](CO[C@@]3(COS(N)(=O)=O)OC(C)(C)O[C@@H]23)O1` [Topiramate] it was 0%; in that of `N#Cc1cc(-c2n[nH]c(-c3ccncc3)n2)ccn1` [Topiroxostat], 0%; in that of `CC[C@@]1(O)C(=O)OCc2c1cc1n(c2=O)Cc2cc3c(CN(C)C)c(O)ccc3nc2-1` [Topotecan HCl], 24.2%. The same measure, in the same setting: in the case of `CN(C)CCOc1ccc(/C(=C(/CCCl)c2ccccc2)c2ccccc2)cc1` [Toremifene Citrate] it was 21.7%; in that of `Cc1cccc(Nc2ccncc2S(=O)(=O)NC(=O)NC(C)C)c1` [Torsemide], 15.1%. `Cc1cc(Nc2cc(N3CCN(C)CC3)nc(Sc3ccc(NC(=O)C4CC4)cc3)n2)n[nH]1` [Tozasertib (VX-680, MK-0457)]: the inhibition at 100 µM stood at 33.2%. On to `CC(=O)Nc1cccc(-n2c(=O)n(C3CC3)c(=O)c3c(Nc4ccc(I)cc4F)n(C)c(=O)c(C)c32)c1` [Trametinib (GSK1120212)], for which the inhibition at 100 µM came to 3.49%. The same measure, in the same setting: to `COc1ccc(/C=C/C(=O)Nc2ccccc2C(=O)O)cc1OC` [Tranilast] belongs 0%; to `N[C@H]1C[C@@H]1c1ccccc1` [Tranylcypromine (2-PCPA) HCl], 0%; to `CC(C)OC(=O)CCC/C=C\C[C@@H]1[C@@H](/C=C/[C@@H](O)COc2cccc(C(F)(F)F)c2)[C@H](O)C[C@@H]1O` [Travoprost], 0%. Regarding `Cn1c(=O)cc(N2CCC[C@@H](N)C2)n(Cc2cc(F)ccc2C#N)c1=O` [Trelagliptin succinate], the “%inhibition” value is 24.59%. Same read-out and setting: in the case of `Cn1c(=O)cc(N2CCC[C@@H](N)C2)n(Cc2cc(F)ccc2C#N)c1=O` [Trelagliptin] it was 0%. As for `CC1=C(/C=C/C(C)=C/C=C/C(C)=C/C(=O)O)C(C)(C)CCC1` [Tretinoin], the inhibition at 100 µM was 0%. Still for that read-out and setting: in the case of `CC(=O)OCC(COC(C)=O)OC(C)=O` [Triacetin] it was 3.58%; in that of `CC1(C)O[C@@H]2C[C@H]3[C@@H]4CCC5=CC(=O)C=C[C@]5(C)[C@@]4(F)[C@@H](O)C[C@]3(C)[C@]2(C(=O)CO)O1` [Triamcinolone Acetonide], 0%; in that of `C[C@]12C=CC(=O)C=C1CC[C@H]1[C@@H]3C[C@@H](O)[C@](O)(C(=O)CO)[C@@]3(C)C[C@H](O)[C@@]12F` [Triamcinolone], 16.5%. `Nc1nc(N)c2nc(-c3ccccc3)c(N)nc2n1` [Triamterene]: the inhibition at 100 µM came to 4.22%.

With `COc1cc(C(=O)NCc2ccc(OCCN(C)C)cc2)cc(OC)c1OC` [Tribenzagan Hydrochloride], the inhibition at 100 µM worked out at 0%. Take `NS(=O)(=O)c1cc2c(cc1Cl)NC(C(Cl)Cl)NS2(=O)=O` (stereo not drawn) [Trichlormethiazide]: the inhibition at 100 µM turned out to be 0%. As to `CSc1nc2cc(Cl)c(Oc3cccc(Cl)c3Cl)cc2[nH]1` [Triclabendazole], the inhibition at 100 µM was determined as 20.5%. Still for that read-out and setting: in the case of `Oc1cc(Cl)ccc1Oc1ccc(Cl)cc1Cl` [Triclosan] it was 0%.
